Data taken from paper PMC2229530 (The Journal of General Physiology, 2002).
Values belong to the compound of their own block, whether it stands above or below them.

Legend:
sodium pump [1] = molecular target: sodium pump (Homo sapiens, UniProt P05023); assay type: cell-based; settings: for Slope of replot of A versus inhibitor concentration (unprotonated pump) / Slope of replot of B versus inhibitor concentration (protonated pump): 0.3 mM rubidium; for Slope of replot of A versus inhibitor concentration (unprotonated pump): Fig. 4a; for Slope of replot of B versus inhibitor concentration (protonated pump): Fig. 4b
sodium pump [2] = molecular target: sodium pump (Rattus norvegicus, UniProt P06685); assay type: cell-based
sodium pump (Rattus norvegicus, UniProt P06685), sequence (Q63377 whole entry, other chains not shown): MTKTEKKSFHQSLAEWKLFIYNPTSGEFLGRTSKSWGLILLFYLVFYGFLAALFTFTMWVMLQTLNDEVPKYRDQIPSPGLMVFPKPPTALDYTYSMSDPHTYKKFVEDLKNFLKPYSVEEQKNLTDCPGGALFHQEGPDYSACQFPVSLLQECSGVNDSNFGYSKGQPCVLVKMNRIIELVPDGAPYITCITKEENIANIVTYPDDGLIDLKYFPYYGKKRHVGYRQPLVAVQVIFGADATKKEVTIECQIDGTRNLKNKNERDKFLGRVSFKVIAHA

Structure (SMILES): CC[N+](C)(C)Cc1ccccc1Br [bretylium]
Slope of replot of A versus inhibitor concentration (unprotonated pump) (sodium pump [1]; human red blood cells): 0.392 ± 0.078 | Slope of replot of B versus inhibitor concentration (protonated pump) (sodium pump [1]; human red blood cells): 0.282 ± 0.019

Structure (SMILES): N=C(N)N.O=[N+]([O-])O [guanidinium, Guanidium (guanidine) nitrate]
Slope of replot of A versus inhibitor concentration (unprotonated pump) (sodium pump [1]; human red blood cells): 0.175 ± 0.014 | Slope of replot of B versus inhibitor concentration (protonated pump) (sodium pump [1]; human red blood cells): 0.016 ± 0.001

Structure (SMILES): C[C@@H]1O[C@@H](O[C@H]2C[C@@H](O)[C@]3(CO)[C@H]4[C@H](O)C[C@]5(C)[C@@H](C6=CC(=O)OC6)CC[C@]5(O)[C@@H]4CC[C@]3(O)C2)[C@H](O)[C@H](O)[C@H]1O [ouabain]
Fold decrease by protons of the kinetic constant / Ki (sodium pump [2]; rat red cells): 2.2 fold | Fold increase of the kinetic constant for protons caused by the ligand (sodium pump [2]; rat red cells): 2.2 fold

Structure (SMILES): [H+] [protons]
Kd (sodium pump [2]; read-out: KH, proton binding to the pump in the absence of rubidium, rat pump, unloaded): 2.11 nM

More lines, now with the values ahead:

Slope of replot of A versus 1/[Rb] (sodium pump [2]; rat red blood cells, A normalized to y intercept 1, Fig. 2a): 0.868 ± 0.101 | Slope of replot of B versus 1/[Rb] (sodium pump [2]; rat red blood cells, Fig. 2a): 0.066 ± 0.0059 | Fold decrease by protons of the kinetic constant / Ki (sodium pump [2]; rat red cells): ~13 fold | KRb, kinetic constant for rubidium binding to the unprotonated pump (sodium pump [2]; rat red cells, from replot of A vs 1/Rb, 37°C): 0.87 ± 0.1 mM | LRb, kinetic constant for rubidium binding to the protonated pump (sodium pump [2]; rat red cells, from replot of B vs 1/Rb, 37°C): 0.066 ± 0.006 mM | Slope of replot of A versus 1/[Rb] (sodium pump [1]; human red blood cells, A normalized to y intercept 1, Fig. 2b): 1.32 ± 0.07 | Slope of replot of B versus 1/[Rb] (sodium pump [1]; human red blood cells, Fig. 2b): 0.0387 ± 0.0074 | KRb, kinetic constant for rubidium binding to the unprotonated pump (sodium pump [1]; human red cells, from replot of A vs 1/Rb, 37°C): 1.32 ± 0.07 mM | LRb, kinetic constant for rubidium binding to the protonated pump (sodium pump [1]; human red cells, from replot of B vs 1/Rb, 37°C): 0.0387 ± 0.0074 mM
Structure (SMILES): [Rb] [rubidium]

Fold increase by protons of the kinetic constant (sodium pump [2]; rat red cells): 7.1 fold | Slope of replot of A versus inhibitor concentration (unprotonated pump) (sodium pump [1]; human red blood cells): 0.271 ± 0.037 | Slope of replot of B versus inhibitor concentration (protonated pump) (sodium pump [1]; human red blood cells): 0.040 ± 0.006
Structure (SMILES): [Na+] [sodium]
